For data set [1], the target named is T1, Succinic semialdehyde dehydrogenase (SSADH) (Homo sapiens, UniProt P51649, H180Y).
T1 construct: gene ALDH5A1; recombinant SSADH, amino acids 48–535, N-terminal His-tag
T1 sequence (P51649 48-535 H180Y): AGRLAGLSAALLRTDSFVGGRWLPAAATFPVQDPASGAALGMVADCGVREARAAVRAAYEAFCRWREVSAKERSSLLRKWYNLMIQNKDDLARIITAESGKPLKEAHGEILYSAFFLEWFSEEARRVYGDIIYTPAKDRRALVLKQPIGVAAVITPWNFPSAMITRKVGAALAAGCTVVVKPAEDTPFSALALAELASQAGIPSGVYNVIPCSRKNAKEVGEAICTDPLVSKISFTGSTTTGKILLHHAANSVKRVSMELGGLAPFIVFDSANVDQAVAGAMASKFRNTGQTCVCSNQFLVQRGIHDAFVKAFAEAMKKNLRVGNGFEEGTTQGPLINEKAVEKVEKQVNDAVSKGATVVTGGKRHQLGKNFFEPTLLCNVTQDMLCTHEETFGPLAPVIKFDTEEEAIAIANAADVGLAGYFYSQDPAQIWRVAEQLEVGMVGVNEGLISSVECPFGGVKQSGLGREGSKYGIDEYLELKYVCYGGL
The data set can be described thus: intrinsic fluorescence titration (excitation […] nm); CD and Tm shift of about […] °C in support. The class given is binding.

Data set [2] deals with T2, Succinic semialdehyde dehydrogenase (SSADH) (Homo sapiens, UniProt P51649, H180Y/N255D).
T2 construct: gene ALDH5A1; recombinant SSADH, amino acids 48–535, N-terminal His-tag
T2 sequence (P51649 48-535 H180Y/N255D): T1 sequence (P51649 48-535 H180Y) with N208D
The data set can be described thus: intrinsic fluorescence titration (excitation […] nm). The class given is binding.

Data set [3] concerns the target T3, Succinic semialdehyde dehydrogenase (SSADH) (Homo sapiens, UniProt P51649).
T3 construct: gene ALDH5A1; recombinant SSADH, amino acids 48–535, N-terminal His-tag
T3 sequence (P51649 48-535): T1 sequence (P51649 48-535 H180Y) with Y133H
As to the kind of experiment: intrinsic fluorescence titration (excitation […] nm); CD and Tm shift of about […] °C in support. The class given is binding.

Data set [4] deals with T3, Succinic semialdehyde dehydrogenase (SSADH). The data set can be described thus: purified enzyme turnover, NADH formation at […] nm ([…] SSA, […] NAD+). The class given is biochemical.
In data set [5] the target is T1, Succinic semialdehyde dehydrogenase (SSADH). Described as above. The class given is biochemical.
Data set [6] deals with the molecule itself. As to the kind of experiment: SEC; Superdex 200 (10/300), 100 mM potassium phosphate, 150 mM NaCl, pH 8; 0.1 to 5 mg/mL protein loaded; 280 nm signal.

Positions count from the first letter of the chain named. Numbers in names are those of the source.

For the molecule `NC(=O)c1ccc[n+]([C@@H]2O[C@H](COP(=O)([O-])OP(=O)(O)OC[C@H]3O[C@@H](n4cnc5c(N)ncnc54)[C@H](O)[C@@H]3O)[C@@H](O)[C@H]2O)c1` [NAD+], the dissociation constant Kd in data set [1] was 3 ± 1 µM; in data set [2], 33 ± 13 µM; in data set [3], 2.8 ± 0.3 µM.
Take `O=CCCC(=O)O` [Succinic semialdehyde]: the results for the “purified enzyme turnover, NADH formation at 340 nm (10 μM SSA, 500 μM NAD+)” value in data set [4] and in data set [5] were 65 s⁻¹ and 54 s⁻¹, respectively.

B1: Succinic semialdehyde dehydrogenase (SSADH), wildtype, recombinant (amino acids 48-535) (enzyme, human, UniProt P51649-1 48-535, looked up)
chain: T1 sequence (P51649 48-535 H180Y) with Y133H
notes: No thrombin cleavage of the His-tag is described; also called WT SSADH; WT; source: E. coli BL21, purified (HisTrap, single step)
Turning to B1, in data set [6], the “stoichiometry N” value came to 4.

B2: Succinic semialdehyde dehydrogenase (SSADH) His180Tyr variant, recombinant (amino acids 48-535) (enzyme, human, UniProt P51649-1 48-535, looked up)
chain: T1 sequence (P51649 48-535 H180Y)
notes: No thrombin cleavage of the His-tag is described; also called H180Y; rs2760118 variant; source: E. coli BL21, purified (HisTrap, single step)
With B2, the “stoichiometry N” value in data set [6] amounted to 4.

For orientation: Kd means the equilibrium constant for the complex coming apart. The term stoichiometry N denotes the number of molecules, sites or subunits per partner or assembly.

The values are drawn from publication PMC11121183, “Functional Characterization of a Spectrum of Genetic Variants in a Family with Succinic Semialdehyde Dehydrogenase Deficiency” (International Journal of Molecular Sciences, 2024).
